Reference: ChEMBL document CHEMBL1773056 (Bioorg Med Chem Lett, 2011)

Columns and labels:
[1] = molecular target: 5-hydroxytryptamine receptor 2A (Homo sapiens, UniProt P28223)
Description: Binding affinity to human 5HT2A receptor

[2] = molecular target: T1, 5-hydroxytryptamine receptor 1A (Homo sapiens, UniProt P08908); experiment: biochemical; format: cell-based, HeLa
T1 sequence (P08908 whole entry): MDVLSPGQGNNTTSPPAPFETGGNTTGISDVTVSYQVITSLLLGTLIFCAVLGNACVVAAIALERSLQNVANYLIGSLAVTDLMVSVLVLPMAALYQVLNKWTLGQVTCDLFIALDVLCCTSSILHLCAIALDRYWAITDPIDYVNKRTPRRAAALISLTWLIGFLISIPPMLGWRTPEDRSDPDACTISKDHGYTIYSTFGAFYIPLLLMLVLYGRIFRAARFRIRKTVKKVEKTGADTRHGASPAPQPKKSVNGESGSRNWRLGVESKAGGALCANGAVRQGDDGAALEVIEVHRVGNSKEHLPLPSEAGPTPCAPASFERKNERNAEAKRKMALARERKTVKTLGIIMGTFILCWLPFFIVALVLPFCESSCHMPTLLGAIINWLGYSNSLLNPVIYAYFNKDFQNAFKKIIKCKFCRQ
Description: Displacement of [3H]-8-OH-DPAT from human 5HT1A receptor expressed in HeLa cells

D(2) dopamine receptor = D(2) dopamine receptor (Homo sapiens, UniProt P14416); experiment: biochemical; format: cell-based, CHO
Sequence of D(2) dopamine receptor (P14416 whole entry): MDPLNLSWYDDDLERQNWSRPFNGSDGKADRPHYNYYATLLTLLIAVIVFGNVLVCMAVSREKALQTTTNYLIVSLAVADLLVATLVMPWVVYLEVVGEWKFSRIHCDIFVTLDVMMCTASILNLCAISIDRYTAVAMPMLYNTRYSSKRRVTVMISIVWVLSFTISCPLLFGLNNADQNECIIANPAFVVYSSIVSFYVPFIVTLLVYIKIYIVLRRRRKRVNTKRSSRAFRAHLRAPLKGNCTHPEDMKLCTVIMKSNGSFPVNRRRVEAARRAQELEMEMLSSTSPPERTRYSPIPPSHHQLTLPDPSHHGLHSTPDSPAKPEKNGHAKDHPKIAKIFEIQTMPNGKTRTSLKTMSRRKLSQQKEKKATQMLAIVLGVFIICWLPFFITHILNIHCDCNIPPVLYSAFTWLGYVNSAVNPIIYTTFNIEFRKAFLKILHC
Description: Displacement of [3H]Spiperone from human dopamine D2L receptor expressed in CHO cells

in vivo [3] = conditions: rat, po
Description: Oral bioavailability in rat

Mus musculus [4] = species on record: Mus musculus; experiment: animal or person; conditions: po, read-out: MED
Description: Antipsychotic activity in po dosed mouse assessed as inhibition of spontaneous locomotor activity

in vivo [5] = conditions: rhesus monkey, po, 3 mg/kg
in vivo [6] = conditions: rat, po, 3 mg/kg
Rattus norvegicus [7] = species on record: Rattus norvegicus; experiment: animal or person; format: functional; conditions: po
in vivo [8] = conditions: rat, po, 3 mg/kg; remark: listed apart in the source
in vivo [9] = conditions: rat, po, 3 mg/kg; remark: listed apart in the source
in vivo [10] = conditions: rhesus monkey, iv, 1 mg/kg
Description: Volume of distribution at steady state in rhesus monkey at 1 mg/kg, iv and 3 mg/kg, po

Mus musculus [11] = species on record: Mus musculus; format: functional, Brain
Description: In vivo intrinsic activity at D2 receptor in po dosed mouse brain assessed as inhibition of gamma-butyrolactone-induced increase in DOPA synthesis

in vivo [12] = conditions: rhesus monkey, po, 3 mg/kg; remark: listed apart in the source
Rattus norvegicus [13] = species on record: Rattus norvegicus; experiment: animal or person; format: functional; conditions: po; remark: listed apart in the source
Rattus norvegicus [14] = species on record: Rattus norvegicus; format: functional
in vivo [15] = conditions: rat, iv, 1 mg/kg
Description: Volume of distribution at steady state in rat at 1 mg/kg, iv and 3 mg/kg, po

in vivo [16] = conditions: rhesus monkey, iv, 1 mg/kg; remark: listed apart in the source
Description: Half life in rhesus monkey at 1 mg/kg, iv

in vivo [17] = conditions: rat, iv, 1 mg/kg; remark: listed apart in the source
Description: Half life in rat at 1 mg/kg, iv

in vivo [18] = conditions: rat, iv, 1 mg/kg; remark: listed apart in the source
in vivo [19] = conditions: rhesus monkey, iv, 1 mg/kg; remark: listed apart in the source
in vivo [20] = conditions: rhesus monkey, po, 3 mg/kg; remark: listed apart in the source
Mus musculus [21] = species on record: Mus musculus; conditions: in vivo
Description: Induction of catalepsy in mouse

Mus musculus [22] = species on record: Mus musculus; format: functional, Brain; remark: listed apart in the source
Description: In vivo intrinsic activity at D2 receptor in sc dosed mouse brain assessed as inhibition of gamma-butyrolactone-induced increase in DOPA synthesis

Sequence of 5-hydroxytryptamine receptor 2A (P28223 whole entry): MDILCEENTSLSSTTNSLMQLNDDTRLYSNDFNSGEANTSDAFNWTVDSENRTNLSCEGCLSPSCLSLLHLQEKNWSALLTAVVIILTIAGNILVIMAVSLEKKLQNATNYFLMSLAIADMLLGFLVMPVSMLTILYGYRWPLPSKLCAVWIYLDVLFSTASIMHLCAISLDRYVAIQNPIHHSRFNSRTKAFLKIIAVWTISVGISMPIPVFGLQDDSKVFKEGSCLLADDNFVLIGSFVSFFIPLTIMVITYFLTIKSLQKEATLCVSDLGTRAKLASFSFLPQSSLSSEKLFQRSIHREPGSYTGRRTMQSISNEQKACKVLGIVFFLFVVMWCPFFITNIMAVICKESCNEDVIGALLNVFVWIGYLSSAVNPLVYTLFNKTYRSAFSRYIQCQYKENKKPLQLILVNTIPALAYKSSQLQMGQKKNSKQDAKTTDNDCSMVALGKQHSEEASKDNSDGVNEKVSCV

Row | SMILES | Ki [1] [nM] | Ki [2] [nM] | also measured
1 | O=C1CCc2ccc(OCCCCN3CCN(c4cccc(C(F)(F)F)c4Cl)CC3)nc2N1 | 12 |  | 
2 | O=C1CCc2ccc(OCCCCN3CCN(c4ccc(F)c5ccccc45)CC3)nc2N1 | 11.7 |  | 
3 | O=C1CCc2ccc(OCCCCN3CCN(c4cccc5c4CCCC5)CC3)nc2N1 | 0.09 | 28 | 
4 | O=C1CCc2ccc(OCCCCN3CCN(c4cccc5cccc(F)c45)CC3)nc2N1 | 0.67 | 0.77 | Ki (D(2) dopamine receptor): 1.7 nM
5 | O=C1CCc2ccc(OCCCCN3CCN(c4cccc(Cl)c4F)CC3)nc2N1 | 10.4 | 1.2 | 
6 | O=C1CCc2ccc(CCCCCN3CCN(c4cccc(Cl)c4Cl)CC3)nc2N1 | 0.79 | 11.4 | bioavailability (in vivo [3]): 6%
7 | O=C1CCc2ccc(OCCCCN3CCN(c4cccc5ccc(F)cc45)CC3)nc2N1 | 0.28 | 1.1 | Ki (D(2) dopamine receptor): 1.2 nM
8 | O=c1ccc2cnc(OCCCCN3CCN(c4cccc(Cl)c4Cl)CC3)cc2[nH]1 | 2.9 | 40.7 | 
9 | O=C1CCc2ccc(OCCCCN3CCN(c4cccc(Cl)c4Cl)CC3)nc2N1 | 0.13 | 17.7 | bioavailability (in vivo [3]): 23%
10 | O=C1CCc2ccc(OCCCCN3CCN(c4cc(F)cc5ccccc45)CC3)nc2N1 | 1.9 | 3.3 | 
11 | Cc1cccc(N2CCN(CCCCOc3ccc4c(n3)NC(=O)CC4)CC2)c1C | 0.35 |  | 
12 | O=C1CCc2ccc(OCCCCN3CCN(c4cccc(F)c4Cl)CC3)nc2N1 | 31.2 | 1.7 | 
13 | O=c1ccc2cnc(OCCCCN3CCN(c4cccc(Cl)c4Cl)CC3)nc2[nH]1 | 3.2 | 52.7 | 
14 | O=C1CCc2ccc(OCCCCN3CCN(c4cccc5c(F)cccc45)CC3)nc2N1 | 3.3 | 3 | 
15 | O=C1CCc2ccc(OCCCCN3CCN(c4cccc(Cl)c4C(F)(F)F)CC3)nc2N1 | 1.4 | 3.5 | Ki (D(2) dopamine receptor): 3 nM
16 | O=C1CCc2ccc(OCCCCN3CCN(c4cccc5ccccc45)CC3)nc2N1 [PF-00217830] | 0.14 | 3.7 | minimal effective dose (Mus musculus [4]): 0.3 mg/kg; Tmax (in vivo [5]): 5 h; Tmax (in vivo [6]): 1.2 h; inhibition in vivo at 0.3 mg/kg (Rattus norvegicus [7]): 31%; Cmax (in vivo [8]): 202 ng/mL; bioavailability (in vivo [9]): 19.2%; Vd (in vivo [10]): 2.6 L/kg; inhibition (INH) (Mus musculus [11]): 46%; Cmax (in vivo [12]): 96 ng/mL; inhibition in vivo at 1 mg/kg (Rattus norvegicus [13]): 78%; inhibition (INH) (Rattus norvegicus [14]): 78%; Vd (in vivo [15]): 1.1 L/kg; half-life (in vivo [16]): 13.6 h; half-life (in vivo [17]): 6.8 h; clearance (in vivo [18]): 14.9 mL/min/kg; clearance (in vivo [19]): 5.8 mL/min/kg; bioavailability (in vivo [20]): 20.5%; MED (Mus musculus [21]): > 10 mg/kg
17 | Cc1ccccc1N1CCN(CCCCOc2ccc3c(n2)NC(=O)CC3)CC1 | 50.9 |  | 
18 | O=C1CCc2ccc(OCCCCN3CCN(c4cccc5c4CCC5)CC3)nc2N1 | 0.16 | 6.3 | 
19 | O=C1CCc2ccc(OCCCCN3CCN(c4ccccc4Cl)CC3)nc2N1 | 15.9 | 4.6 | 
20 | O=c1ccc2ccc(OCCCCN3CCN(c4cccc(Cl)c4Cl)CC3)nc2[nH]1 | 1.6 | 14 | 
21 | Cc1c(Cl)cccc1N1CCN(CCCCOc2ccc3c(n2)NC(=O)CC3)CC1 | 1.5 |  | 
22 | O=C1CCc2ccc(OCCCCN3CCN(c4cccc5c4OCCC5)CC3)nc2N1 | 0.19 | 1.1 | Ki (D(2) dopamine receptor): 0.71 nM
23 | O=C1CCc2ccc(OCCCCN3CCN(c4cccc5cc(F)ccc45)CC3)nc2N1 | 3.5 | 1.2 | 
24 | O=c1ccc2ccc(OCCCCN3CCN(c4cccc5ccccc45)CC3)nc2[nH]1 |  |  | minimal effective dose (Mus musculus [4]): 1 mg/kg; inhibition (INH) (Mus musculus [22]): 45%; MED (Mus musculus [21]): > 30 mg/kg
25 | O=C1CCc2ccc(OCCCCN3CCN(c4c(F)ccc5ccccc45)CC3)nc2N1 | 6.7 | 0.84 | 
26 | O=C1CCc2ccc(OCCCCN3CCN(c4cccc5c4CCCO5)CC3)nc2N1 | 1.3 | 0.78 | Ki (D(2) dopamine receptor): 1 nM
27 | Cc1cccc(N2CCN(CCCCOc3ccc4c(n3)NC(=O)CC4)CC2)c1Cl | 0.5 |  | 
